Reference: ChEMBL document CHEMBL3822379, “Development of novel 1,4-benzodiazepine-based Michael acceptors as antitrypanosomal agents” (Bioorg Med Chem Lett, 2016)
pIC50: −log10 of the molar value.

Legend:
[1] = target: Rhodesain (Trypanosoma brucei rhodesiense) (UniProt Q95PM0); assay: Inhibition of Trypanosoma brucei rhodesiense rhodesain expressed in Pichia pastoris X33 at 100 uM using Cbz-Phe-Arg-AMC as substrate measured over 10 mins by fluorescence microplate reader analysis
[2] = tested on: Trypanosoma brucei brucei; assay: Antitrypanosomal activity against trypomastigote form of Trypanosoma brucei brucei TC 221 after 24 hrs by alamar blue assay; format: functional, organism-based; conditions: TC 221, 24 h
[3] = Cytotoxicity against mouse J774.1 cells incubated for 24 hrs by alamar blue assay; format: cell-based; conditions: read-out: TC50

Rhodesain (Trypanosoma brucei rhodesiense), sequence (Q95PM0 1-450): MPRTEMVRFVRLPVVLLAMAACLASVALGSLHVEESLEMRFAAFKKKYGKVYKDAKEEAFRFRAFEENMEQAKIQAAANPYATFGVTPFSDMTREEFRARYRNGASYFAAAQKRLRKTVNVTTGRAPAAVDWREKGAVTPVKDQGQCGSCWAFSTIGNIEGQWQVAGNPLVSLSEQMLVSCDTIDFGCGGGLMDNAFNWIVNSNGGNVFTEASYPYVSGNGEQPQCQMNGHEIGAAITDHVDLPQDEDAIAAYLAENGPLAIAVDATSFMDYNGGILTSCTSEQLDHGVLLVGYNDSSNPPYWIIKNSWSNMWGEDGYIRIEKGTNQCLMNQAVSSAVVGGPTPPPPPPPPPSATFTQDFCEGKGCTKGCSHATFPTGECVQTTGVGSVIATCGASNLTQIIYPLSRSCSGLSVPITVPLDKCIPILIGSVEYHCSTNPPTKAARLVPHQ

SMILES	inhibition [1] [%]	pIC50 [2]	CC50 at 24 h [3] [µM]
N#C/C=C\CCCN1C(=O)CN=C(c2ccccc2)c2ccccc21	27	< 4.40	–
CC(=O)/C=C/CCCN1C(=O)CN=C(c2ccccc2)c2ccccc21	27	5.34	31.8
COC(=O)/C=C/CCCN1C(=O)CN=C(c2ccccc2)c2ccccc21	27	4.63	–
CC(=O)/C=C/CCN1C(=O)CN=C(c2ccccc2)c2ccccc21	27	5.28	> 100
COC(=O)/C=C/CNC(=O)CN1C(=O)[C@@H](COC(=O)NC23CC4CC(CC(C4)C2)C3)N=C(c2ccccc2)c2ccccc21	–	5.32	–
N#C/C=C\CCCCN1C(=O)CN=C(c2ccccc2)c2ccccc21	27	4.84	–
N#C/C=C\CCN1C(=O)CN=C(c2ccccc2)c2ccccc21	27	< 4.40	–
COC(=O)/C=C/CCCCN1C(=O)CN=C(c2ccccc2)c2ccccc21	27	4.80	–
COC(=O)/C=C\CCN1C(=O)CN=C(c2ccccc2)c2ccccc21	27	< 4.40	–
CC(=O)/C=C/CCCCN1C(=O)CN=C(c2ccccc2)c2ccccc21	27	4.88	–
